Several values for one entry are separate records, joined by “and”; a condition that tells them apart may be missing. Identical values can stand only once.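 Compound exposure: 48 hours, 5 concentrations, 96-well plates. The concentration for 50% growth inhibition is given as GI50. TGI: concentration producing complete growth inhibition.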
Assays:
Experiment in all cases: NCI-60 cell line screen, 48 h
ACHN renal = tested on: ACHN renal
COLO 205 colon = tested on: COLO 205 colon
HL-60(TB) leukemia = tested on: HL-60(TB) leukemia
HT29 colon = tested on: HT29 colon
MALME-3M melanoma = tested on: MALME-3M melanoma
U251 CNS = tested on: U251 CNS
UACC-62 melanoma = tested on: UACC-62 melanoma
UO-31 renal = tested on: UO-31 renal

SMILES	TGI (ACHN renal) [µM]	TGI (COLO 205 colon) [µM]	TGI (HL-60(TB) leukemia) [µM]	TGI (HT29 colon) [µM]	TGI (MALME-3M melanoma) [µM]	TGI (U251 CNS) [µM]	TGI (UACC-62 melanoma) [µM]	TGI (UO-31 renal) [µM]	GI50 (HT29 colon) [µM]	GI50 (COLO 205 colon)	GI50 (HL-60(TB) leukemia) [µM]
O=c1[nH]ncc2[nH]c3c(c12)CCCc1ccccc1-3	> 100	53.2	> 100	> 100	> 100	> 100	> 100	> 100	–	–	–
Cc1nc(SCC(=O)Nc2ccccc2)c2sc(=S)n(-c3ccccc3)c2n1	> 10	> 10	> 10	> 10	> 10	> 10	> 10	–	–	–	–
CNNC1=NS(=O)(=O)c2cc(C(=O)OC)c(Cl)cc2S1	> 10	> 10	> 10	> 10	> 10	> 10	> 10	–	–	–	–
O=C(Nc1ccccc1)N1CC(CN2CCN(c3ccccc3)CC2)OC1=O (centres undefined)	> 100	> 100	> 100	> 100	> 100	> 100	> 100	> 100	–	–	–
O=C(C1=CCC2(CC1)OCCO2)N(Cc1ccccc1)c1ccccc1I	43.2	36.5	> 100	36	–	48.1	31.1	33.3	–	–	–
O=c1oc2ccccc2c(O)c1C(c1ccc([N+](=O)[O-])cc1)c1c(O)c2ccccc2oc1=O	–	> 100	> 100	> 100	> 100	> 100	> 100	> 100	–	–	–
c1csc(-c2cc(-c3ccsc3)c(-c3cccs3)s2)c1	> 100	82.5	–	> 100	> 100	> 100	> 100	> 100	–	–	–
C/C(=N/NC(=S)Nc1cccc(Cl)c1)c1cccc(/C(C)=N\NC(=S)Nc2cccc(Cl)c2)n1	6.73	> 100	> 100	> 42.4	22.4	> 59.3	16.4	> 20.9	–	–	–
N[C@H]1CCc2c1nc1c(c2-c2ccccc2)CC[C@@H]1N	> 100	44.2	46.4	26	31.9	55.3	–	–	–	–	–
CCCCCCCCCCCCCCCCCCNc1ccn(C2OC(COP(=O)(O)OCCCCCCCCCCCCCCCC)C(O)C2O)c(=O)n1 (centres undefined)	> 100	> 100	> 100	> 100	–	> 100	> 100	> 100	–	–	–
CCCCNC(=O)C1=C(C)NC(C)=C(C(=O)NCCCC)C1	> 100	> 100	> 100	> 100	–	> 100	> 100	> 100	–	–	–
Cc1ccc2c(c1)C(=O)C1(C2)Cc2ccc(C)cc2C1=O	> 100	–	> 100	> 100	> 100	> 100	–	> 100	–	–	–
COC(=O)c1ccc(NCc2cc(O)c3ccccc3c2O)cc1	25.7	25.4	> 28.5	48.5	5.95	40.1	10.3	26.7	–	–	–
CCOC(=O)c1c(N2CCOCC2)[nH]c(=O)c(C(c2ccc(N(C)C)cc2)c2c(O)c(C(=O)OCC)c(N3CCOCC3)[nH]c2=O)c1O	> 100	> 100	–	> 100	> 100	> 100	> 100	> 100	–	–	–
COc1cccc(NC(=O)c2c(SC)n[nH]c2N)c1	> 100	> 100	> 100	> 100	> 100	> 100	> 100	–	–	–	–
C1CSCCSS[C@@H]2CCCCC2SC1 (some centres undefined)	–	> 100	> 100	> 100	–	> 100	> 100	> 100	–	–	–
CNC(=O)OC(C)CN1c2ccccc2Sc2ccccc21 (centres undefined)	> 100	> 100	> 100	> 100	> 100	> 100	> 100	> 100	–	–	–
Nc1nonc1-c1noc(-c2nonc2N)[n+]1[O-]	> 100	–	–	33.6	42.5	> 100	> 100	> 100	–	–	–
O=c1cc2oc3ccc4ccccc4c3cc-2c(=O)[nH]1	32	30	4.18	32.2	30.3	22	32.5	23.5	–	–	–
Fc1ccc(C(OCCN2CC3CC2CN3CCCc2ccccc2)c2ccc(F)cc2)cc1 (centres undefined)	23.7	3.11	12.3	15.5	8.27	19.5	23.1	24.7	–	–	–
CC(C)Nc1n[nH]c(=O)n1C(C)C	> 100	> 100	> 100	> 100	–	> 100	> 100	> 100	–	–	–
CNC(=S)N/N=C(\C)c1ccc(OC)cc1O	> 100	> 100	> 100	> 100	> 100	> 100	> 100	> 100	–	–	–
CC(C)C(OC(=O)c1cc(NC(=S)c2ccccc2)ccc1Cl)C(C)C	65.7	41.7	55.8	34.4	> 57.8	> 61.5	38.9	54.6	–	–	–
COc1cc(CSc2ccc(O)cc2)cc(O)c1O	> 100	52.6	> 100	46.8	> 100	> 100	61.2	> 100	–	–	–
COc1ccc(-n2c(C)nc3ccc(N=Cc4ccccc4)cc3c2=O)cc1	> 100	> 100	> 100	> 100	> 100	> 100	> 100	> 100	–	–	–
COc1cccc2c1[C@H](OC)[C@]13O[C@@]1(C2=O)[C@H](O)[C@H](C)[C@@](O)(C(=O)[C@@H]1O[C@H]1C)[C@@H]3O	0.7	0.415	–	1.11	0.523	3.1	0.877	0.647	0.251	–	–

SMILES	TGI (ACHN renal) [µM]	TGI (COLO 205 colon) [µM]	TGI (HL-60(TB) leukemia) [µM]	TGI (HT29 colon) [µM]	TGI (MALME-3M melanoma) [µM]	TGI (U251 CNS) [µM]	TGI (UACC-62 melanoma) [µM]	TGI (UO-31 renal) [µM]	GI50 (HT29 colon) [µM]	GI50 (COLO 205 colon)	GI50 (HL-60(TB) leukemia) [µM]
Cc1nnc2sc(-c3ccc(N)cc3)nn12	> 100	> 100	> 100	> 100	> 100	–	> 100	> 100	–	–	–
COc1ccc(C(=O)N=C2N(c3ccccc3)C(=Nc3ccccc3)C(=Nc3ccccc3)N2c2ccccc2)cc1	> 100	> 100	> 100	> 100	> 58.3	> 87.9	> 100	> 100	–	–	–
S=C(NNC1=NCCCCN1)Nc1ccccc1	> 100	> 100	> 100	> 100	> 100	> 100	> 100	> 100	–	–	–
COc1ccc(C(F)(F)F)cc1NC(=O)O/N=C(/Cl)C(C)C	26.7	4.1	> 21.8	53.3	24.7	> 58.2	36.7	33.3	–	–	–
O=C(/C=C/c1ccc(O)c(O)c1)Oc1ccccc1	41.7	29.2	20.1	48.8	–	48.3	35.9	30.5	–	–	–
O=C(CCNC(=O)OCc1ccccc1)OCCCNC(=O)OCc1ccccc1	> 100	> 100	> 100	> 100	> 100	> 100	> 100	> 100	–	–	–
CC(=O)NC1C(OCc2ccccc2)OC(CO)C(O)C1OCC(=O)NC(C)C(=O)NC(CCC(=O)OCCNC(=O)c1cccc2cc3ccccc3nc12)C(N)=O (centres undefined)	39.3	64.8	57.7	> 100	31.4	53.5	34.3	36.2	–	–	–
COc1ccc(/C=C/c2cc(=O)cc(/C=C/c3ccc(OC)c(O)c3)o2)cc1O	6.85	> 61.1	5.02	4.1	–	4.21	3.53	11.5	–	–	–
N#C/C(=C\N1CCNC1=S)C(=O)c1ccc2ccccc2c1	> 100	> 100	> 100	> 100	–	> 100	> 100	> 100	–	–	–
OC(CCN1CCN(CCOC(c2ccc(F)cc2)c2ccc(F)cc2)CC1)c1ccccc1 (centres undefined)	25.8	18.2	37.3	21.6	26.8	27.8	28.2	11.2	–	–	–
Clc1ccc(OCc2nnc(CCCCCCCCc3nnc(COc4ccc(Cl)cc4)o3)o2)cc1	> 100	> 100	–	> 100	> 100	> 100	> 100	> 100	–	–	–
C=C(Cl)C(Br)(CCl)CCC(Cl)C(C)C (centres undefined) (tested in a mixture with another compound)	3.98	5	–	2.75	7.07	3.14	2.59	3.01	–	–	–
C[C@H](C(=O)N1C(=O)O[C@@H](c2ccccc2)[C@H]1C)[C@H](c1ccccc1)N(Cc1ccccc1)OC(=O)c1ccccc1	> 100	> 100	> 100	> 100	> 100	> 100	> 100	> 100	–	–	–
COC(=O)C1=C(O)C(C(=O)OC)[C@@]2(O)[C@@H](C(=O)OC)C(c3ccc(OC(=O)/C(=C/c4ccccc4)c4ccccc4)cc3)C[C@@H]1[C@@H]2C(=O)OC (some centres undefined)	> 100	> 100	> 100	> 100	> 100	> 100	17.2	40.4	–	–	–
COC(=O)c1ccc(/C=N/c2cc(C)nn2-c2ccccc2)cc1	> 100	43	> 100	92.1	> 100	> 100	> 100	> 100	–	–	–
Cc1ccc(-c2n[nH]c(=O)n2N)cc1	> 100	> 100	> 100	> 100	> 100	> 100	> 100	> 100	–	–	–
Cn1cc(C=C(C#N)C#N)c(=O)n(C)c1=O	> 100	> 100	–	> 100	–	> 100	> 100	> 100	–	–	–
Cc1ccc(-c2n[nH]c(CC#N)n2)cc1	> 100	> 100	> 100	> 100	> 100	> 100	> 100	> 100	–	–	–
COc1ccc(-c2c(N)n(-c3cc(OC)cc(OC)c3)c(=O)c3cc([N+](=O)[O-])ccc23)cc1	> 100	> 100	> 100	> 100	> 100	> 100	> 100	> 100	–	–	–
COc1cccc(N2CCc3c(C)c(C#N)c4nc5ccccc5n4c32)c1	> 100	> 100	> 100	> 100	> 100	> 100	> 100	> 100	–	–	–
CCN(CC)CC1CCCCN1CC(=O)N1c2ccc(Br)cc2C(=O)Nc2cccnc21 (centres undefined)	> 100	> 100	> 100	> 100	> 100	> 100	> 100	44.8	–	–	–
COC(=O)[C@@H]1C[C@H]2[C@H](c3ccccc3Br)[C@@H](OC(C)=O)[C@@H](OCc3ccccc3)ON2O1	> 100	> 100	–	> 100	–	> 100	> 100	> 100	–	–	–
c1ccc(N=C2SC(c3ccccc3)CN2C23CC4CC(CC(C4)C2)C3)cc1 (centres undefined)	> 100	> 100	> 100	> 100	> 100	> 100	–	> 100	–	–	–
CC(=O)OCC1OC(Sc2nc(-c3ccc(C)cc3)c(C#N)c(=O)n2C2OC(COC(C)=O)C(OC(C)=O)C(OC(C)=O)C2OC(C)=O)C(OC(C)=O)C(OC(C)=O)C1OC(C)=O (centres undefined)	> 100	> 100	76.6	> 100	–	> 100	> 100	> 100	–	> 100 µM and 10.3 µM	25.5
CN(C)c1ncc(-c2c[nH]c3ccccc23)nc1-c1c[nH]c2ccccc12	6.88	5.2	> 100	4.93	–	11.4	3.89	13.3	–	–	–

From PubChem BioAssay (NCI)
